This test concerns production of CD69 by B lymphocytes in human whole blood. Description: CD69 Whole Blood Assay (CD69 Hu Blood FACS). It is filed as cell-based. As to conditions: human whole blood activated with goat F(ab')2 anti-human IgM, 20 hours; CD69 on CD20 positive cells by FACS; Table 2. The source says: A CD69 Whole Blood Assay can be conducted on Formula I compounds to determine the ability of compounds to inhibit the production of CD69 by B lymphocytes in human whole blood activated by crosslinking surface IgM with goat F(ab′)2 anti-human IgM (Example 907). CD69 is a type II C-type lectin involved in lymphocyte migration and cytokine secretion. CD69 expression represents one of the earliest available indicators of leukocyte activation and its rapid induction occurs through transcriptional activation (Vazquez et al (2009) Jour. of Immunology Published Oct. 19, 2009, doi:10.4049/jimmunol.0900839). Concentration-dependent inhibition of antigen receptor stimulation by selective Btk inhibitors induces cell surface expression of the lymphocyte activation marker CD69 (Honigberg et al (2010) Proc. Natl. Acad. Sci. 107(29):13075-13080). Thus, CD69 inhibition by selective Btk inhibitors may be correlated with therapeutic efficacy of certain B-cell disorders.
Human blood is obtained from healthy volunteers, with the following restrictions: 1 week drug-free, non-smokers. Blood (approximately 20 mls to test 8 compounds) is collected by venipuncture into Vacutainer® (Becton, Dickinson and Co.) tubes with sodium heparin.
Solutions of Formula I and II compounds at 10 mM in DMSO are diluted 1:10 in 100% DMSO, then are diluted by three-fold serial dilutions in 100% DMSO for a ten point dose-response curve. The compounds are further diluted 1:10 in PBS and then an aliquot of 5.5 μl of each compound is added in duplicate to a 2 ml 96-well plate; 5.5 μl of 10% DMSO in PBS is added as control and no-stimulus wells. Human whole blood —HWB (100 μl) is added to each well. After mixing the plates are incubated at 37° C., 5% CO2, 100% humidity for 30 minutes. Goat F(ab′)2 anti-human IgM (10 μl of a 500 μg/ml solution, 50 μg/ml final) is added to each well (except the no-stimulus wells) with mixing and the plates are incubated for an additional 20 hours. At the end of the 20 hour incubation, samples are incubated with fluorescent labeled antibodies for 30 minutes, at 37° C., 5% CO2, 100% humidity. Include induced control, unstained and single stains for compensation adjustments and initial voltage settings. Samples are then lysed with PharM Lyse™ (BD Biosciences Pharmingen) according to the manufacturer's instructions. Samples are then transferred to a 96 well plate suitable to be run on the BD Biosciences HTS 96 well system on the LSRII machine. Data acquired and Mean Fluorescence Intensity values were obtained using BD Biosciences DIVA Software. Results are initially analyzed by FACS analysis software (Flow Jo). […] The inhibitory concentration (IC50, IC70, IC90) values are calculated by Prism version 5, using a nonlinear regression curve fit.
`Cn1ccc(Nc2cc(-c3ccnc(-n4ncc5cc(C(C)(C)C)cc(F)c5c4=O)c3CO)cn(C)c2=O)n1` [Compound 140, 6-tert-butyl-8-fluoro-2-[3-(hydroxymethyl)-4-[1-methyl-5-[(1-methylpyrazol-3-yl)amino]-6-oxo-3-pyridyl]-2-pyridyl]phthalazin-1-one] yielded a CD69 Hu Blood FACS (IC70) of 68 nM.

As for `Cc1cc(Nc2cc(-c3ccnc(-n4ncc5cc(C(C)(C)C)cc(F)c5c4=O)c3CO)nn(C)c2=O)no1` [Compound 141, 6-tert-butyl-8-fluoro-2-[3-(hydroxymethyl)-4-[1-methyl-5-[(5-methylisoxazol-3-yl)amino]-6-oxo-pyridazin-3-yl]-2-pyridyl]phthalazin-1-one], the CD69 Hu Blood FACS (IC70) was determined as 295 nM. To `CCn1ccc(Nc2cc(-c3ccnc(-n4ncc5cc(C(C)(C)C)cc(F)c5c4=O)c3CO)cn(C)c2=O)n1` [Compound 142, 6-tert-butyl-2-[4-[5-[(1-ethylpyrazol-3-yl)amino]-1-methyl-6-oxo-3-pyridyl]-3-(hydroxymethyl)-2-pyridyl]-8-fluoro-phthalazin-1-one] belongs 168 nM; to `COCc1cc(Nc2cc(-c3ccnc(-n4ncc5cc(C(C)(C)C)cc(F)c5c4=O)c3CO)cn(C)c2=O)nn1C` [Compound 143, 6-tert-butyl-8-fluoro-2-[3-(hydroxymethyl)-4-[5-[[5-(methoxymethyl)-1-methyl-pyrazol-3-yl]amino]-1-methyl-6-oxo-3-pyridyl]-2-pyridyl]phthalazin-1-one], 13.1 nM; to `Cn1nc(Nc2cc(-c3ccnc(-n4ncc5cc(C(C)(C)C)cc(F)c5c4=O)c3CO)cn(C)c2=O)cc1C(=O)N1CCCC1` [Compound 144, 6-tert-butyl-8-fluoro-2-[3-(hydroxymethyl)-4-[1-methyl-5-[[1-methyl-5-(pyrrolidine-1-carbonyl)pyrazol-3-yl]amino]-6-oxo-3-pyridyl]-2-pyridyl]phthalazin-1-one], 20.3 nM. In turn, `Cc1cc(Nc2cc(-c3ccnc(-n4ncc5cc(C(C)(C)C)cc(F)c5c4=O)c3CO)cn(C)c2=O)nn1CC(F)F` [Compound 145, 6-tert-butyl-2-[4-[5-[[1-(2,2-difluoroethyl)-5-methyl-pyrazol-3-yl]amino]-1-methyl-6-oxo-3-pyridyl]-3-(hydroxymethyl)-2-pyridyl]-8-fluoro-phthalazin-1-one] came in with a CD69 Hu Blood FACS (IC70) of 163 nM. Take `CN1Cc2cc(Nc3cc(-c4ccnc(-n5ncc6cc(C(C)(C)C)cc(F)c6c5=O)c4CO)cn(C)c3=O)nn2CC1=O` [Compound 146, 6-tert-butyl-8-fluoro-2-[3-(hydroxymethyl)-4-[1-methyl-5-[(5-methyl-6-oxo-4,7-dihydropyrazolo[1,5-a]pyrazin-2-yl)amino]-6-oxo-3-pyridyl]-2-pyridyl]phthalazin-1-one]: the CD69 Hu Blood FACS (IC70) was 20.9 nM. To `Cn1cc(-c2ccnc(-n3ncc4cc(C(C)(C)C)cc(F)c4c3=O)c2CO)cc(Nc2ccc(N3CC(O)C3)cn2)c1=O` [Compound 147, 6-tert-butyl-8-fluoro-2-[4-[5-[[5-(3-hydroxyazetidin-1-yl)-2-pyridyl]amino]-1-methyl-6-oxo-3-pyridyl]-3-(hydroxymethyl)-2-pyridyl]phthalazin-1-one] belongs 33.3 nM; to `CC(C)C(=O)N1CCn2nc(Nc3cc(-c4ccnc(-n5ncc6cc(C(C)(C)C)cc(F)c6c5=O)c4CO)cn(C)c3=O)cc2C1` [Compound 148, 6-tert-butyl-8-fluoro-2-[3-(hydroxymethyl)-4-[1-methyl-5-[[5-(2-methylpropanoyl)-6,7-dihydro-4H-pyrazolo[1,5-a]pyrazin-2-yl]amino]-6-oxo-3-pyridyl]-2-pyridyl]phthalazin-1-one], 13.9 nM; to `Cn1cc(Nc2cc(-c3ccnc(-n4ncc5cc(C(C)(C)C)cc(F)c5c4=O)c3CO)cn(C)c2=O)nn1` [Compound 149, 6-tert-butyl-8-fluoro-2-[3-(hydroxymethyl)-4-[1-methyl-5-[(1-methyltriazol-4-yl)amino]-6-oxo-3-pyridyl]-2-pyridyl]phthalazin-1-one], 93 nM.

Compound `CC1OCCn2nc(Nc3cc(-c4ccnc(-n5ncc6cc(C(C)(C)C)cc(F)c6c5=O)c4CO)cn(C)c3=O)cc21` (centres unmarked) [Compound 150, 6-tert-butyl-8-fluoro-2-[3-(hydroxymethyl)-4-[1-methyl-5-[(4-methyl-6,7-dihydro-4H-pyrazolo[5,1-c][1,4]oxazin-2-yl)amino]-6-oxo-3-pyridyl]-2-pyridyl]phthalazin-1-one] had a CD69 Hu Blood FACS (IC70) of 42.8 nM. The figure for `CC(C)N1Cc2cc(Nc3cc(-c4ccnc(-n5ncc6cc(C(C)(C)C)cc(F)c6c5=O)c4CO)cn(C)c3=O)nn2CC1=O` [Compound 151, 6-tert-butyl-8-fluoro-2-[3-(hydroxymethyl)-4-[5-[(5-isopropyl-6-oxo-4,7-dihydropyrazolo[1,5-a]pyrazin-2-yl)amino]-1-methyl-6-oxo-3-pyridyl]-2-pyridyl]phthalazin-1-one] is 14.1 nM; for `Cn1cc(-c2ccnc(-n3ncc4cc(C(C)(C)C)cc(F)c4c3=O)c2CO)cc(Nc2cc[nH]n2)c1=O` [Compound 152, 6-tert-butyl-8-fluoro-2-[3-(hydroxymethyl)-4-[1-methyl-6-oxo-5-(1H-pyrazol-3-ylamino)-3-pyridyl]-2-pyridyl]phthalazin-1-one] it is 45.9 nM; for `CN1CCn2nc(Nc3cc(-c4ccnc(-n5ncc6cc(C(C)(C)C)cc(F)c6c5=O)c4CO)nn(C)c3=O)cc2C1` [Compound 153, 6-tert-butyl-8-fluoro-2-[3-(hydroxymethyl)-4-[1-methyl-5-[(5-methyl-6,7-dihydro-4H-pyrazolo[1,5-a]pyrazin-2-yl)amino]-6-oxo-pyridazin-3-yl]-2-pyridyl]phthalazin-1-one] it is 59.6 nM.

In turn, `Cn1nc(-c2ccnc(-n3ncc4cc(C(C)(C)C)cc(F)c4c3=O)c2CO)cc(Nc2cc3n(n2)CCN(C2COC2)C3)c1=O` [Compound 155, 6-tert-butyl-8-fluoro-2-[3-(hydroxymethyl)-4-[1-methyl-5-[[5-(oxetan-3-yl)-6,7-dihydro-4H-pyrazolo[1,5-a]pyrazin-2-yl]amino]-6-oxo-pyridazin-3-yl]-2-pyridyl]phthalazin-1-one] showed a CD69 Hu Blood FACS (IC70) of 26.6 nM. The figure for `Cn1cc(-c2ccnc(-n3ncc4cc(C(C)(C)C)cc(F)c4c3=O)c2CO)cc(Nc2ccc(C(C)(C)C#N)cn2)c1=O` [Compound 156, 2-[6-[[5-[2-(6-tert-butyl-8-fluoro-1-oxo-phthalazin-2-yl)-3-(hydroxymethyl)-4-pyridyl]-1-methyl-2-oxo-3-pyridyl]amino]-3-pyridyl]-2-methyl-propanenitrile] is 31 nM; for `Cc1cc(Nc2cc(-c3ccnc(-n4ncc5cc(C(C)(C)C)cc(F)c5c4=O)c3CO)cn(C)c2=O)ns1` [Compound 157, 6-tert-butyl-8-fluoro-2-[3-(hydroxymethyl)-4-[1-methyl-5-[(5-methylisothiazol-3-yl)amino]-6-oxo-3-pyridyl]-2-pyridyl]phthalazin-1-one] it is 157 nM. `CCc1cc(Nc2cc(-c3ccnc(-n4ncc5cc(C(C)(C)C)cc(F)c5c4=O)c3CO)cn(C)c2=O)no1` [Compound 158, 6-tert-butyl-2-[4-[5-[(5-ethylisoxazol-3-yl)amino]-1-methyl-6-oxo-3-pyridyl]-3-(hydroxymethyl)-2-pyridyl]-8-fluoro-phthalazin-1-one] showed a CD69 Hu Blood FACS (IC70) of 66.7 nM.

As for `Cn1cc(-c2ccnc(-n3ncc4cc(C(C)(C)C)cc(F)c4c3=O)c2CO)cc(Nc2cnn(C(F)F)n2)c1=O` [Compound 159, 6-tert-butyl-2-[4-[5-[[2-(difluoromethyl)triazol-4-yl]amino]-1-methyl-6-oxo-3-pyridyl]-3-(hydroxymethyl)-2-pyridyl]-8-fluoro-phthalazin-1-one], the CD69 Hu Blood FACS (IC70) was 208 nM. To `Cn1cc(-c2ccnc(-n3ncc4cc(C(C)(C)C)cc(F)c4c3=O)c2CO)cc(Nc2cnccn2)c1=O` [Compound 160, 6-tert-butyl-8-fluoro-2-[3-(hydroxymethyl)-4-[1-methyl-6-oxo-5-(pyrazin-2-ylamino)-3-pyridyl]-2-pyridyl]phthalazin-1-one] belongs 116 nM.

These data come from patent US8669251B2, “8-fluorophthalazin-1(2H)-one compounds” (Genentech, Inc., priority 2011, dated 2014).
